Data published in patent US20150352209A1, “NANOFIBER HAVING SELF-HEATING […] BIOLOGICALLY ACTIVE SUBSTANCE RELEASE PROPERTIES, PRODUCTION METHOD FOR SAME, AND NONWOVEN FABRIC HAVING SELF-HEATING […] BIOLOGICALLY ACTIVE SUBSTANCE RELEASE CAPABILITIES” (NATIONAL INSTITUTE FOR MATERIALS SCIENCE, priority 2013, published 2015).

System: COLO679 cell, which is a human melanoma cell line
Assay: Cancer cell killing test (cell proliferation index)
Type: cell-based
Details: COLO679 cells; anticancer drug added instead of application of alternating magnetic field

## COc1cccc2c1C(=O)c1c(O)c3c(c(O)c1C2=O)C[C@@](O)(C(=O)CO)C[C@@H]3O[C@H]1C[C@H](N)[C@H](O)[C@H](C)O1 [free anticancer drug, doxorubicin]
  change of cell proliferation index (CPI): the decrease amount of the CPI was smaller than in the case in which the sample in Example 1 was used
